Measurements reported in patent publication US10870638B2, “Pyridazinone compound or its salt, and herbicide containing it” (ISHIHARA SANGYO KAISHA, LTD., priority 2016, dated 2020).

Key:
Assay type in all cases: in vivo
Settings in all cases: active ingredient amount 31 g/ha, 14th day after application
[1] = system: barnyardgrass (Echinochloa crus-qalli L.); assay: Test Example 1: foliar treatment, growth inhibition rate on 14th day
Method in brief: (§1)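 Visual 0–100% inhibition scoring (100 = complete kill) at 14 days after foliar treatment of soil-grown seedlings at species-specific leaf stages, with the compound sprayed as a wettable powder or emulsifiable concentrate dilution.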

corn (Zea mays L.) [2] = assay: as above
Method in brief: as §1

[3] = system: crabgrass (Digitaria sanquinalis L.); assay: as above
Method in brief: as §1

[4] = system: green foxtail (Setaria viridis L.); assay: as above
Method in brief: (§2)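 Using a small sprayer, formulated compound in water (0.1 vol % surfactant, 1,000 L/ha) was applied to seedlings grown from seed in upland soil. Fourteen days on, growth state was observed and expressed as percent inhibition from 0 to 100.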

[5] = system: italian ryegrass (Lolium multiflorum Lam.); assay: as above
Method in brief: as §1

[6] = system: redroot pigweed (Amaranthus retroflexus L.); assay: as above
Method in brief: as §1

rice (Oryza sativa L.) [7] = assay: as above
Method in brief: as §2

[8] = system: soybean (Glycine max Merr.); assay: as above
Method in brief: as §2

[9] = system: wheat (Triticum aestivum L.); assay: as above
Method in brief: as §1

[10] = system: wild oat (Avena fatua L.); assay: as above
Method in brief: as §2

[11] = system: barnyardgrass (Echinochloa crus-qalli L.); assay: Test Example 2: soil application on the day after sowing, growth inhibition rate on 14th day
Method in brief: (§3)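 Herbicidal effect is assessed on pot-grown plants after a soil spray applied the day after sowing at prescribed active ingredient rates. Scoring occurs visually at day 14 as growth inhibition (%).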

corn (Zea mays L.) [12] = assay: as above
Method in brief: as §3

[13] = system: crabgrass (Digitaris sanquinalis L.); assay: as above
Method in brief: as §3

[14] = system: green foxtail (Setaria viridis L.); assay: as above
Method in brief: as §3

[15] = system: prickly sida (Sida spinosa L.); assay: as above
Method in brief: as §3

[16] = system: redroot pigweed (Amaranthus retroflexus L.); assay: as above
Method in brief: as §3

rice (Oryza sativa L.) [17] = assay: as above
Method in brief: as §3

[18] = system: soybean (Glycine max Merr.); assay: as above
Method in brief: as §3

[19] = system: velvetleaf (Abutilon theophrasti MEDIC.); assay: as above
Method in brief: as §3

[20] = system: wheat (Triticum aestivum L.); assay: as above
Method in brief: as §3

Compound | Growth inhibition rate (%) Barnyardgrass [1] | Growth inhibition rate (%) Corn (corn (Zea mays L.) [2]) | Growth inhibition rate (%) Crabgrass [3] | Growth inhibition rate (%) Green foxtail [4] | Growth inhibition rate (%) Italian ryegrass [5] | Growth inhibition rate (%) Redroot pigweed [6] | Growth inhibition rate (%) Rice (rice (Oryza sativa L.) [7]) | Growth inhibition rate (%) Soybean [8] | Growth inhibition rate (%) Wheat [9] | Growth inhibition rate (%) Wild oat [10] | Growth inhibition rate (%) Barnyardgrass [11] | Growth inhibition rate (%) Corn (corn (Zea mays L.) [12]) | Growth inhibition rate (%) Crabgrass [13] | Growth inhibition rate (%) Green foxtail [14] | Growth inhibition rate (%) Prickly sida [15] | Growth inhibition rate (%) Redroot pigweed [16] | Growth inhibition rate (%) Rice (rice (Oryza sativa L.) [17]) | Growth inhibition rate (%) Soybean [18] | Growth inhibition rate (%) Velvetleaf [19] | Growth inhibition rate (%) Wheat [20]
CC(=O)Oc1c(C)nn(C)c(=O)c1-c1cc(Oc2ncc(C(F)(F)F)cc2Cl)ccc1C1CC1 [1-150] | 100% | 95% | 100% | 100% | 100% | 0% | 88% | 0% | 99% | 100% | 99% | 0% | 98% | 98% | 0% | 0% | 0% | 0% | 0% | 0%
CC(=O)Oc1c(C)nn(C)c(=O)c1-c1cc(Oc2ncc(C(F)(F)F)cc2Cl)c(C)cc1C [1-152] | 100% | 90% | 99% | 100% | 99% | 0% | 85% | 30% | 88% | 100% | 80% | 10% | 35% | 85% | 0% | 0% | 0% | 10% | 0% | 0%
CCn1ncc(O)c(-c2cc(Oc3ncc(C(F)(F)F)cc3Cl)ccc2C)c1=O [1-157] | 100% | 100% | 100% | 100% | 99% | 0% | 80% | 20% | 93% | 100% | 100% | 0% | 99% | 100% | 0% | 0% | 40% | 30% | 0% | 0%
Cn1ncc(O)c(-c2cc(Oc3ncc(C(F)(F)F)cc3Cl)ccc2OC(F)(F)F)c1=O [1-162] | 100% | 98% | 100% | 100% | 99% | 0% | 93% | 0% | 99% | 100% | 100% | 40% | 100% | 100% | 0% | 0% | 95% | 0% | 0% | 0%
